Experimental findings from ChEMBL document CHEMBL4406814, “Furocoumarins as multi-target agents in the treatment of cystic fibrosis” (Eur J Med Chem, 2019) are described below.

Broadly, the inhibition is how much of the control response was suppressed. A word on the IC50: it is the concentration that inhibits the measured activity by half.

Assay type in all cases: cell-based
For assay [1], the system named is IB3-1. Put plainly: Inhibition of TNF-alpha induced NFkappaB in human IB3-1 cells assessed as reduction in IL-8 mRNA expression at 1 uM preincubated for 5 hrs followed by TNF-alpha stimulation measured after 24 hrs by RT-qPCR analysis relative to control. In general terms: In qPCR the cycle at which signal appears reflects the starting amount.
Assay [2] deals with IB3-1. Kind of assay: Inhibition of TNF-alpha induced NFkappaB in human IB3-1 cells assessed as reduction in IL-8 mRNA expression at 10 uM preincubated for 5 hrs followed by TNF-alpha stimulation measured after 24 hrs by RT-qPCR analysis relative to control.
Assay [3] in a line: Inhibition of TNF-alpha induced NFkappaB in human IB31 cells assessed as reduction in IL-8 mRNA expression preincubated for 5 hrs followed by TNF-alpha stimulation measured after 24 hrs by RT-qPCR analysis. As to conditions: IB3-1.

In the case of `Cc1oc2c(C)cc3c(C)cc(=O)oc3c2c1C`, the values for the inhibition in the assay on IB3-1 [1] and in the assay on IB3-1 [2] were 57% and 56%, respectively.
For `CCCc1cc(=O)oc2c1cc(C)c1occ(C)c12`, the IC50 in assay [3] was 21.9 µM.
As to `CCc1cc(=O)oc2c1cc(CC)c1occ(C)c12`, the IC50 in assay [3] is 17.8 µM.
For the compound `Cc1cc(=O)oc2c1ccc1oc(CN)cc12`, the inhibition was 55% in the assay on IB3-1 [1] and 83% in the assay with IB3-1 [2].
Taken in the same sequence, the figures for `Cc1oc2c(c(C)cc3oc(=O)cc(C)c32)c1C` were 66% and 47%.
For `CCc1cc(=O)oc2c1cc(C)c1occ(C)c12`, the IC50 in assay [3] came to 8 µM.
On to `Cc1coc2c1c(C)cc1oc(=O)cc(C)c12`, for which the inhibition in the assay with IB3-1 [1] was 73%; in the assay on IB3-1 [2], 52%.
In the case of `Cc1cc2c(C(C)C)cc(=O)oc2c2c(C)coc12`, the IC50 in assay [3] amounted to 18.9 µM.
As for `Cc1cc2c(CO)cc(=O)oc2c2c(C)coc12`, the inhibition with IB3-1 [1] was 51%; in the assay with IB3-1 [2] it was 52%.
On to `CCc1cc2c(C(C)C)cc(=O)oc2c2c(C)coc12`, for which the half-maximal inhibitory concentration (IC50) in assay [3] was 7.4 µM.
Still for that read-out and setting: to `CCc1cc2c(C)cc(=O)oc2c2c(C)coc12` belongs 24 µM.
Turning to `CCCc1cc(=O)oc2c1cc(CC)c1occ(C)c12`, the IC50 in assay [3] worked out at 19.8 µM.
As to `Cc1cc2c(C)cc3oc(=O)cc(C)c3c2o1`, the inhibition with IB3-1 [1] was determined as 68%; in the assay on IB3-1 [2], 81%.
